# From a melting point compilation (Tetko et al.; mined from patent text by program, amines drawn as free bases though some values may be those of a salt)
row,SMILES,melting point
1,CC(=O)c1ccc(/C=C(\C)c2ccc3c(c2)C(C)(C)CCC3(C)C)cc1,148 to 149 °C
2,COc1cc2oc(=O)c3c(c2c(OC)c1OC)CCN(CC(C)=O)C3,114 to 116 °C
3,O=Cc1ccc(OC(F)F)c([N+](=O)[O-])c1,88 to 90 °C
4,CC1NC(=O)NN=C1c1ccc(NC(=O)CN2CCOCC2)cc1 (stereo not drawn),244 to 247 °C
5,CC1(C)CC(NC(=O)Nc2ccccc2)CC(C)(C)N1CC#N,218 to 220 °C
6,CC1N(C)c2cc3[nH]c(=O)cc(C(F)(F)F)c3cc2C1(C)C (stereo not drawn),248 to 249 °C
7,COc1cc2c(cc1OC)CN(CCCOc1ccc(NC(=O)c3nc4cc(C)c(C)cc4nc3OC)cc1)CC2,158 °C
8,O=S(=O)(c1ccc(N2CCCCCC2)cc1)N1CC(O)CC1=S (stereo not drawn),138 to 139 °C
9,C=CC[C@@H]1CCc2cc(OC)ccc2[C@H]1O (relative stereo),63 to 65 °C
10,Cc1sc2c(c1C)C(c1ccc(Cl)cc1)=NC(CC(=O)NCCN)c1nnc(C)n1-2 (stereo not drawn),142 to 146 °C
11,CCCNC(=S)Nc1nc(OCc2cccc(C#N)c2)ncc1F,163 to 165 °C
12,CCOC(=O)/C=C(/c1ccc(OCC)cc1)c1cc(Cl)cc(Cl)c1,104 to 106 °C
13,CC(C)(C)C1(C)C(=O)N=C2c3ccccc3C(=O)N21 (stereo not drawn),136 to 138 °C
14,CC(C)CCC1(C(F)(F)F)NC(=O)Nc2ccc(F)cc21 (racemic),179 °C
15,COc1ccc(-c2cc3cc(F)c(F)cc3[nH]2)cc1NCc1cccc([N+](=O)[O-])c1,212 to 214 °C
16,CC(=O)C(C(=O)c1ccc(Cl)cc1)C(=O)c1ccc(C(F)(F)F)cc1[N+](=O)[O-] (stereo not drawn),102 to 104 °C
17,CON(C)C(=O)c1c(COC2CCCCO2)noc1-c1ccccc1Cl (stereo not drawn),51 to 56 °C
18,CCOC(=O)CN1C(=O)C(N[C@H]2CCCCNC2=O)CCc2ccccc21 (stereo partly drawn),148 to 150 °C
19,c1ccc(-c2nc(N3CCN(c4ccccn4)CC3)c3ccccc3n2)cc1,164 to 166 °C
20,O=S(=O)(Nc1onc(C(F)(F)F)c1Br)c1ccccc1,104 to 105 °C
21,COc1ccc(-c2nc(C(N)=O)oc2-c2ccc(OC)cc2)cc1,133 to 135 °C
22,CC(O)c1cc(Cl)cc(Cl)c1O (stereo not drawn),70 °C
23,CC(C)(ON1C(C)(C)CC(OC(=O)CCCCCCCCC(=O)OC2CC(C)(C)N(OC(C)(C)c3ccccc3)C(C)(C)C2)CC1(C)C)c1ccccc1,94 to 96 °C
24,COc1ccc(-c2cnc3cc4cnn(CC(=O)O)c4cc3n2)cc1F,> 260 °C

row,SMILES,melting point
1,COC(=O)NC1CCC(Nc2ncc3ncnc(Nc4ccc(F)c(Cl)c4)c3n2)CC1 (stereo not drawn),230 to 235 °C
2,CNC(=O)c1cnc(-c2ccccc2)c(-c2ccc(=O)n(C(C)C)n2)c1,212 to 213 °C
3,CCOC(=O)CCCCCOc1ccc(C=O)cc1,33 to 35 °C
4,CCC(=O)NC(C)(C)c1ccc(C(=O)Nc2cn3cc(Cl)ccc3n2)cc1,249 to 252 °C
5,CC1CNC(CN(CC(=O)O)C(=O)c2ccccc2)c2ccccc21 (stereo not drawn),157 °C
6,CC(=O)NC[C@H]1CN(c2ccc(N3C[C@H]4CN(C(=O)OCc5ccccc5)C[C@H]4C3)c(F)c2)C(=O)O1,165 to 168 °C
7,Oc1ccc2c(c1)COc1c-2cc2ccc(O)cc2c1-c1cc(Cl)cc(Cl)c1,252 to 255 °C
8,COCC(C)Oc1ccc2c(c1)c(-c1cc3cccnc3[nH]1)cn2C (stereo not drawn),150 to 151 °C
9,CC(C)OC(=O)c1nn(-c2ccc(Cl)cc2)c(=O)c2c(N)scc12,118 to 120 °C
10,COc1nc(OC)nc(OC(C(=O)OCc2ccccc2)C(C)(C)C)n1 (stereo not drawn),63 to 66 °C
11,CCCN1C(=O)N2C[C@@H](Cc3ccccc3)N=C2c2c1nc(CCl)n2Cc1ccccc1,112 to 113 °C
12,COc1ccc(CCC(=O)Nc2ccccc2C(=O)O)cc1OC,137 °C
13,O=C(CCl)Nc1ccc2[nH]c(=O)oc2c1,228 to 231 °C
14,CNC(=O)CC1c2cc(C#N)ccc2OC(C)(C)C1O (stereo not drawn),141 to 142 °C
15,CCNC(=O)c1ccc(OCC(O)c2ccc3c(c2)C(C)(C)CCC3(C)C)cc1O (stereo not drawn),65 to 70 °C
16,Cc1ccc(C)c(C(C)Sc2cc(C)c3ccccc3n2)c1 (stereo not drawn),84 to 85 °C
17,Nc1cccc(-c2nn(Cc3oc4ccccc4c(=O)c3-c3ccccc3)c3ncnc(N)c23)c1,157 to 159 °C
18,CCCC(O)c1cc(C)cc(C)c1C=CC1OCC(C)(C)CO1 (stereo not drawn),56 to 59 °C
19,COCC(=O)Oc1ccc(C=CNC(C)=O)cc1,169 to 170 °C
20,CNC1(c2ccccc2Cl)C(=O)N(S(=O)(=O)c2ccc(NC(=O)c3cccnc3)cc2)c2ccc(Cl)cc21 (stereo not drawn),228 °C
21,Cc1sc(Cl)cc1C1(c2cccc(-c3cncnc3)c2)N=C(N)N(C)C1=O (stereo not drawn),141 to 149 °C
22,N#CC1(c2ccccc2)CCC(O)CC1 (stereo not drawn),103 to 111 °C
23,N=C(N)Nc1ccc(C(=O)Nc2ncc(Cl)[nH]2)cc1,263 to 265 °C
24,C[C@H](NC(=O)OC(C)(C)C)C(=O)N(CC(=O)N1CCC[C@H]1C(=O)OCc1ccccc1)C1Cc2ccccc2C1,135 to 136 °C
